Measurements from ChEMBL document CHEMBL5325405, “Rationally designed donepezil-based hydroxamates modulate Sig-1R and HDAC isoforms to exert anti-glioblastoma effects” (Eur J Med Chem, 2023).
Active and inactive are the calls of the source. The rule behind the calls is not given here.

What was measured:
Astrocyte = experiment: Cytotoxicity against primary astrocyte cells (unknown origin) assessed as reduction in cell growth at 3 uM measured after 3 days by MTT assay; assay type: toxicity, cell-based; settings: 72 h, time 3 day
U-87 MG [1] = experiment: cells; assay type: functional, cell-based, U-87MG ATCC; settings: Homo sapiens
U-87 MG [2] = experiment: Cytotoxicity against human U-87 MG cells assessed as reduction in cell growth at 10 uM measured after 3 days by MTT assay; assay type: functional, U-87MG ATCC; set-up: scale not given: the % may be the effect or the level left; settings: time 3 day
GBM [3] = experiment: Antitumor activity against Temozolomide-resistant patient derived GBM cells assessed as reduction in cell growth measured after 3 uM measured after 3 days by MTT assay; assay type: functional, cell-based; settings: Homo sapiens, time 3.0 day
Histone deacetylase 1 = Histone deacetylase 1 (Homo sapiens, UniProt Q13547); experiment: Inhibition of human HDAC1
Sequence of Histone deacetylase 1 (Q13547 whole entry): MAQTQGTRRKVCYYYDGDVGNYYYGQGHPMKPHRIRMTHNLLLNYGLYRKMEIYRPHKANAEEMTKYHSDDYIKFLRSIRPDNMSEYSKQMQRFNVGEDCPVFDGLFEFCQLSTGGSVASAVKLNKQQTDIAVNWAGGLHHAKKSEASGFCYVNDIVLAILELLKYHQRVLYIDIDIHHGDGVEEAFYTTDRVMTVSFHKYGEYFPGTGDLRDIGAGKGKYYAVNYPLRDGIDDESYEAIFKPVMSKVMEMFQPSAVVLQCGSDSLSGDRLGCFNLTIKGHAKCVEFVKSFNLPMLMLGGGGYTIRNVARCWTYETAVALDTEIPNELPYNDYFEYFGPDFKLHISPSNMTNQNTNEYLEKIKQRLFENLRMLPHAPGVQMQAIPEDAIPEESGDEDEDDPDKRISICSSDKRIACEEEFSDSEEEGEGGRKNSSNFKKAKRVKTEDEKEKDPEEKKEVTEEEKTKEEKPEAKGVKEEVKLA

Histone deacetylase 2 = Histone deacetylase 2 (Homo sapiens, UniProt Q92769); experiment: Inhibition of human HDAC2
Sequence of Histone deacetylase 2 (Q92769 whole entry): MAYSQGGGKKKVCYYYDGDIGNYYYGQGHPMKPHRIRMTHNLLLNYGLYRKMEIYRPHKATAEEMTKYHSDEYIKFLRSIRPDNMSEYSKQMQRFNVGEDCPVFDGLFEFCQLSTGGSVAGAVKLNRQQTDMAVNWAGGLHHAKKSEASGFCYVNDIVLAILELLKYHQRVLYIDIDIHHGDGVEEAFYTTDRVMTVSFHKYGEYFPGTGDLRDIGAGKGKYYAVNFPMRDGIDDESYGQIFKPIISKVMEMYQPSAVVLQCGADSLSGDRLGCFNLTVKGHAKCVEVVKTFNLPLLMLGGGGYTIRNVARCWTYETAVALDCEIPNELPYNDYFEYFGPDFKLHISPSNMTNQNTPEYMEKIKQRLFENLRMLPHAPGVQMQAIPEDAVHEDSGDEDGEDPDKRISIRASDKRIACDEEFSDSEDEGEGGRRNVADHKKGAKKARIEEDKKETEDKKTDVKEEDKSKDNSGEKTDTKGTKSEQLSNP

[4] = target: T1, Protein deacetylase HDAC6 (Homo sapiens, UniProt Q9UBN7); experiment: Inhibition of human HDAC6
T1 sequence (Q9UBN7 whole entry): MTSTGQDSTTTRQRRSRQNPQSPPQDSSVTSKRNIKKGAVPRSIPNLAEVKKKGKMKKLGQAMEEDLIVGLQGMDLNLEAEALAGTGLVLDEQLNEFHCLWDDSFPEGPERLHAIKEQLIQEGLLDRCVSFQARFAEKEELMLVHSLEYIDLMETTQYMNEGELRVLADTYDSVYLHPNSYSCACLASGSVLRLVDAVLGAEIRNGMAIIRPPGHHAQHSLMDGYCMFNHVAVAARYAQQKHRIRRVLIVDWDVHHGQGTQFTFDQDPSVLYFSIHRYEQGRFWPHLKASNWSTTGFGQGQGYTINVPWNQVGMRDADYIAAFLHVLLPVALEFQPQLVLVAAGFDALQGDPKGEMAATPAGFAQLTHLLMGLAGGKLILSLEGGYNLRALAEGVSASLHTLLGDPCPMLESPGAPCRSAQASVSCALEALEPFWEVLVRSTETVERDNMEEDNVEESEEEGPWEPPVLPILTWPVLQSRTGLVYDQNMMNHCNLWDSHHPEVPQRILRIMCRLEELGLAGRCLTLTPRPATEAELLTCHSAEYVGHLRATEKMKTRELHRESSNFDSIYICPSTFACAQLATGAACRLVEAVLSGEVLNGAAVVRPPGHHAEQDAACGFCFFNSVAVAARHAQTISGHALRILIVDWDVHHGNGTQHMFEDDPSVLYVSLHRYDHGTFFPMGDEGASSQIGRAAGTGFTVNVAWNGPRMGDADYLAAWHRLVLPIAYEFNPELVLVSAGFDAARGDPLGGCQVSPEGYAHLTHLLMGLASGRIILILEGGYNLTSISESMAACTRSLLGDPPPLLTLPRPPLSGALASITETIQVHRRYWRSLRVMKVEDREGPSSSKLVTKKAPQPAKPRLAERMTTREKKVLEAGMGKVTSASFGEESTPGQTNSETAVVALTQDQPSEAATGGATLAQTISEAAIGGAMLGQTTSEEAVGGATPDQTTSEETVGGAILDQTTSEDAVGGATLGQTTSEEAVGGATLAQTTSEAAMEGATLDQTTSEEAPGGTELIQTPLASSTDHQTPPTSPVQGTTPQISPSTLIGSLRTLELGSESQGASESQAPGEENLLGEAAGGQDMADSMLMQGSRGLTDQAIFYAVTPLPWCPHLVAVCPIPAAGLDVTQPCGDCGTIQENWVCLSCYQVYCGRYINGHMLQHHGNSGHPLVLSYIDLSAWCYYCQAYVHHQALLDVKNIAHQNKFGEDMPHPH

Histone deacetylase 8 = target: T2, Histone deacetylase 8 (Homo sapiens, UniProt Q9BY41); experiment: Inhibition of human HDAC8
T2 sequence (Q9BY41 whole entry): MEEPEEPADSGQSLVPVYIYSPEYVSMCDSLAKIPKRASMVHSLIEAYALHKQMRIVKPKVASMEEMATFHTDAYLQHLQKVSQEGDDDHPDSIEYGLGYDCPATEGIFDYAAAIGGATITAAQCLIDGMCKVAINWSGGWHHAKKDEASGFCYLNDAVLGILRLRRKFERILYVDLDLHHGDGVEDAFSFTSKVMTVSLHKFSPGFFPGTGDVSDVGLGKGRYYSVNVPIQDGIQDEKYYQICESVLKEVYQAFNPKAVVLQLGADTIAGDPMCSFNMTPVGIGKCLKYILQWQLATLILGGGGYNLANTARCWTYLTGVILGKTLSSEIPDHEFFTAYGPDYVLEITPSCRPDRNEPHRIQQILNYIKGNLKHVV

U-87 MG [5] = experiment: Cytotoxicity against human U-87 MG cells assessed as reduction in cell growth at 30 uM measured after 3 days by MTT assay; assay type: functional, U-87MG ATCC; set-up: scale not given: the % may be the effect or the level left; settings: time 3 day
GBM [6] = experiment: Inhibition of colony formation in Temozolomide-resistant patient derived pt 3 GBM cells at 3 to 30 uM measured after 3 days by crystal violet staining based analysis; assay type: functional, cell-based; settings: Homo sapiens, dose 3-30 µM, time 3.0 day
GBM [7] = experiment: Inhibition of colony formation in Temozolomide-resistant patient derived pt 5 GBM cells at 3 to 30 uM measured after 3 days by crystal violet staining based analysis; assay type: functional, cell-based; settings: Homo sapiens, dose 3-30 µM, time 3.0 day
Glioblastoma stem cell [8] = experiment: Antiproliferative activity against Temozolomide-resistant patient derived pt 3 Glioblastoma stem cell sphere assessed as reduction in cell viability at 30 uM measure after 3 days by MTT assay; assay type: functional, cell-based; settings: Homo sapiens, time 3.0 day
Glioblastoma stem cell [9] = experiment: Antiproliferative activity against Temozolomide-resistant patient derived pt 5 Glioblastoma stem cell sphere assessed as reduction in cell viability at 30 uM measure after 3 days by MTT assay; assay type: functional, cell-based; settings: Homo sapiens, time 3.0 day
A 172 [10] = experiment: Upregulation of acetylated Sig-1R expression in human A-172 cells by immunoblotting analysis; assay type: functional, cell-based
GBM [11] = experiment: Inhibition of colony formation in Temozolomide-resistant patient derived pt 5 GBM cells at 10 uM measured after 3 days by crystal violet staining based analysis; assay type: functional, cell-based; settings: Homo sapiens, time 3.0 day
GBM [12] = experiment: Inhibition of colony formation in Temozolomide-resistant patient derived pt 3 GBM cells at 10 uM measured after 3 days by crystal violet staining based analysis; assay type: functional, cell-based; settings: Homo sapiens, time 3.0 day
Glioblastoma stem cell [13] = experiment: Antiproliferative activity against Temozolomide-resistant patient derived pt 3 Glioblastoma stem cell sphere assessed as reduction in cell viability at 10 uM measure after 3 days by MTT assay; assay type: functional, cell-based; settings: Homo sapiens, time 3.0 day
Glioblastoma stem cell [14] = experiment: Antiproliferative activity against Temozolomide-resistant patient derived pt 5 Glioblastoma stem cell sphere assessed as reduction in cell viability at 10 uM measure after 3 days by MTT assay; assay type: functional, cell-based; settings: Homo sapiens, time 3.0 day
A 172 [15] = experiment: Induction of cell cycle arrest in human A-172 cells assessed as increase in accumulation of cells at G2/M phase at 10 uM measured after 24 hrs by propidium iodide staining based flow cytometry analysis; assay type: functional
A 172 [16] = experiment: Induction of cell cycle arrest in human A-172 cells assessed as decrease in accumulation of cells at G0/G1 phase at 10 uM measured after 24 hrs by propidium iodide staining based flow cytometry analysis; assay type: functional
A 172 [17] = experiment: Induction of cell cycle arrest in human A-172 cells assessed as decrease in accumulation of cells at S phase at 10 uM measured after 24 hrs by propidium iodide staining based flow cytometry analysis; assay type: functional
A 172 [18] = experiment: Induction of cell cycle arrest in human A-172 cells assessed as accumulation of cells at subG1 phase at 10 uM measured after 48 hrs by propidium iodide staining based flow cytometry analysis; assay type: functional
A 172 [19] = experiment: Upregulation of acetylated H3 k9/k14 expression in human A-172 cells at 1 to 10 uM measured after 8 to 24 hrs by Western blotting analysis; assay type: functional, cell-based; settings: dose 1-10 µM, time 8-24 hrs
A 172 [20] = experiment: Upregulation of acetylated tubulin expression in human A-172 cells at 1 to 10 uM measured after 8 to 24 hrs by Western blotting analysis; assay type: functional, cell-based; settings: dose 1-10 µM, time 8-24 hrs
A 172 [21] = experiment: Downregulation of PCNA expression in human A-172 cells at 1 to 10 uM measured after 16 hrs by Western blotting analysis; assay type: functional, cell-based; settings: dose 1-10 µM
A 172 [22] = experiment: Downregulation of Spl expression in human A-172 cells at 1 to 10 uM measured after 16 hrs by Western blotting analysis; assay type: functional, cell-based; settings: dose 1-10 µM
A 172 [23] = experiment: […] caspase-3 expression in human A-172 cells at 1 to 10 uM measured after 16 hrs by Western blotting analysis; assay type: functional, cell-based; settings: dose 1-10 µM
U-87 MG [24] = experiment: Antitumor activity against Temozolomide-resistant human U-87 MG cells xenografted in orthotopic BALB/c mouse assessed as prolongation of animal survival at 10 mg/kg, ip qod; assay type: functional, organism-based; settings: U-87MG ATCC

## COc1cc2c(cc1OC)C(=O)C(CC1CCN(Cc3ccc(NCc4ccc(C(=O)NO)cc4)cc3)CC1)C2 (stereo not given)
Astrocyte
  Activity: Non-Toxic
U-87 MG [1]
  IC50: 6170 nM
U-87 MG [2]
  Activity: 90%
GBM [3]
  Activity: Active
Histone deacetylase 1
  inhibition: inactive
Histone deacetylase 2
  inhibition: inactive
[4]
  IC50: 49.6 nM
Histone deacetylase 8
  IC50: 2150 nM

## COc1cc2c(cc1OC)C(=O)C(CC1CCN(Cc3ccccc3)CC1)C2 (stereo not given) [DONEPEZIL]
U-87 MG [1]
  IC50: 47200 nM
U-87 MG [5]
  Activity: 50%
GBM [3]
  Activity: inactive
GBM [6]
  inhibition: inactive
GBM [7]
  inhibition: inactive
Glioblastoma stem cell [8]
  Activity: Active
Glioblastoma stem cell [9]
  Activity: Active
A 172 [10]
  Activity: inactive

## COc1cc2c(cc1OC)C(=O)C(CC1CCN(C(=O)CCCCCCC(=O)NO)CC1)C2 (stereo not given)
U-87 MG [1]
  IC50: 8010 nM

## COc1cc2c(cc1OC)C(=O)C(CC1CCN(Cc3ccc(C(=O)NO)cc3)CC1)C2 (stereo not given)
U-87 MG [1]
  IC50: 46000 nM

## COc1cc2c(cc1OC)C(=O)C(CC1CCN(S(=O)(=O)c3cccc(/C=C/C(=O)NO)c3)CC1)C2 (stereo not given)
U-87 MG [1]
  IC50: 6380 nM
Histone deacetylase 1
  IC50: 1670 nM
Histone deacetylase 2
  IC50: 3360 nM
[4]
  IC50: 110 nM
Histone deacetylase 8
  IC50: 1720 nM

## COc1cc2c(cc1OC)C(=O)C(CC1CCN(Cc3ccc(NC(=O)CCCCCCC(=O)NO)cc3)CC1)C2 (stereo not given)
Astrocyte
  Activity: Non-Toxic
GBM [11]
  inhibition: Active
GBM [12]
  inhibition: Active
U-87 MG [1]
  IC50: 5780 nM
U-87 MG [2]
  Activity: 90%
GBM [3]
  Activity: Active
Glioblastoma stem cell [8]
  Activity: Active
Glioblastoma stem cell [9]
  Activity: Active
Glioblastoma stem cell [13]
  Activity: Active
Glioblastoma stem cell [14]
  Activity: Active
A 172 [15]
  Activity: Active
A 172 [16]
  Activity: Active
A 172 [17]
  Activity: Active
A 172 [18]
  Activity: Active
Histone deacetylase 1
  IC50: 313 nM
Histone deacetylase 2
  IC50: 710 nM
[4]
  IC50: 2.7 nM
Histone deacetylase 8
  IC50: 842 nM
A 172 [19]
  Activity: Active
A 172 [20]
  Activity: Active
A 172 [21]
  Activity: Active
A 172 [22]
  Activity: Active
A 172 [23]
  Activity: Active
A 172 [10]
  Activity: Active
U-87 MG [24]
  Activity: Active

## COc1cc2c(cc1OC)C(=O)C(CC1CCN(Cc3cccc(NC(=O)CCCCCCC(=O)NO)c3)CC1)C2 (stereo not given)
Astrocyte
  Activity: Non-Toxic
U-87 MG [1]
  IC50: 4910 nM
U-87 MG [2]
  Activity: 90%
GBM [3]
  Activity: Active
A 172 [15]
  Activity: Active
A 172 [16]
  Activity: Active
A 172 [17]
  Activity: Active
A 172 [18]
  Activity: Active
Histone deacetylase 1
  IC50: 611 nM
Histone deacetylase 2
  IC50: 1410 nM
[4]
  IC50: 51.5 nM
Histone deacetylase 8
  IC50: 1240 nM

## COc1cc2c(cc1OC)C(=O)C(CC1CCN(C(=O)CCCCCCCCC(=O)NO)CC1)C2 (stereo not given)
U-87 MG [1]
  IC50: 29100 nM

## COc1cc2c(cc1OC)C(=O)C(CC1CCN(Cc3ccc(/C=C/C(=O)NO)cc3)CC1)C2 (stereo not given)
Astrocyte
  Activity: Toxic
U-87 MG [1]
  IC50: 1760 nM
U-87 MG [2]
  Activity: 90%
GBM [3]
  Activity: Active
Histone deacetylase 1
  IC50: 2430 nM
Histone deacetylase 2
  IC50: 500 nM
[4]
  IC50: 239 nM
Histone deacetylase 8
  IC50: 113 nM

## COc1cc2c(cc1OC)C(=O)C(CC1CCN(S(=O)(=O)c3ccc(/C=C/C(=O)NO)cc3)CC1)C2 (stereo not given)
U-87 MG [1]
  IC50: 17000 nM

## O=C(CCCCCCC(=O)Nc1ccccc1)NO [VORINOSTAT]
Astrocyte
  Activity: Toxic
GBM [3]
  Activity: Active
A 172 [10]
  Activity: inactive

## COc1cc2c(cc1OC)C(=O)C(CC1CCN(C(=O)CCCCCCCC(=O)NO)CC1)C2 (stereo not given)
U-87 MG [1]
  IC50: 42800 nM

## COc1cc2c(cc1OC)C(=O)C(CC1CCN(C(=O)CCCCCC(=O)NO)CC1)C2 (stereo not given)
U-87 MG [1]
  IC50: 43200 nM
